Tests used:
[1] = system: human cord blood monocytes (CBMC); experiment: Cytokines in human cord blood monocytes (CBMC); assay type: cell-based
From the text: IL-12p40, is a marker for the innate immune response to infection and is down regulated in CBMC.

pre-term lamb BPD model = experiment: Pre-term lamb BPD model: plasma cytokines; assay type: in vivo
[2] = PK study in rat pups by SC or IV (plasma, BALF); assay type: in vivo
From the text: Pharmacokinetic (PK) Profile of AVR-48 (compound 8). The PK studies of AVR-48 were developed and designed in-house, by high performance liquid chromatography (HPLC), in both mouse and rat pups by IV, IP and IN dosing, to check the bioavailability of the drug formulated as solution, suspension or nanoparticle encapsulation in plasma, broncho-alveolar lavage fluid (BALF) and lung tissues.
A sustained level of AVR-48 was observed only where T1/2 was not estimable. For the IV dosed animals only, maximum concentration was followed by decline on PK Day 1 but was followed by sustained level of AVR-48 on PK Day 3. T1/2 was also not estimable. […] In summary, exposure to AVR-48 increased for 100 mg/kg/day for both routes after 3 days of twice daily administration but not for the 150 mg/kg/day groups.
Animals. C57BL/6J mice were purchased from The Jackson Laboratory (Bar Harbor, ME, USA) and were maintained in a breeding colony at Drexel University, Philadelphia, PA, USA. Animal procedures were performed in accordance with the NIH Guide for the Care and Use of Laboratory Animals and were approved by the Institutional Animal Care and Use Committee (IACUC) of Drexel University Philadelphia, PA (Protocol No. 20706). Neonatal rat pups born from female pregnant Sprague Dawley Crl:CD (SD) rats (Charles River Laboratories, St-Constant, QC, Canada) were used for the toxicology and PK studies to evaluate safety, determine the maximum tolerated dose (MTD) and the PK profile of AVR-48. A minimum 6-day acclimation period was allowed between receipt of the animals and the start of treatment to accustom the rats to the laboratory environment. All rat studies were approved by the IACUC of ITR Laboratories, Canada (Protocol No. 74691).
Formulation of AVR-48 for efficacy and toxicokinetic studies. For the mouse dose response efficacy studies, AVR-48 was reconstituted in 0.9% sterile normal saline to give a final dose concentration of […] as a colorless solution, and injected IP (30 μl) on P2 and P4. The PLGA encapsulated AVR-48 or the GFP-tagged analog was resuspended in deionized sterile water to make a nanosuspension with final dose concentration of 0.025, 0.05 and 0.11 mg/kg/drop. The surfactant Curosurf® (Cheisi Parma, Italy), available commercially, was delivered IN at a volume of 3 μl per nostril, on P2 and P4. For the toxicokinetic study of AVR-48 in rat pups, a formulation of 10% DMSO, 20% tetraglycol, 20% PEG 400, and 50% sterile water was made fresh before administration (Shah, Das et al. 2021).

[3] = system: human lung alveolar type I epithelial cells (AT1); experiment: TNF-α and nitric oxide in human lung alveolar type I epithelial cells co-treated with LPS; assay type: cell-based
whole cord blood (WCB) = experiment: Cytokines in whole cord blood (WCB); assay type: cell-based, human
From the text: IL-1β and IFN-Υ were not detected with either AVR-48 alone or in combination with LPS. N=[…], **p<0.05, ***p<0.005, ****p<0.001, One-way ANOVA.

[4] = PK study in rat pups by SC or IV (plasma, BALF); assay type: in vivo; conditions: for accumulation ratio using AUC(0-t): BALF, SC
TLR4 = biological target: T1, TLR4 (Homo sapiens, UniProt O00206); experiment: TLR4 level in THP-1 human monocytic cells by ELISA; assay type: cell-based
T1 construct: Cell lysates were prepared, total protein was quantified and treated with different concentrations; host or cells: THP-1 cells stimulated with PMA for 48 h, then lysed

[5] = AVR-48 alone or in combination with LPS

T1 sequence (O00206 24-839): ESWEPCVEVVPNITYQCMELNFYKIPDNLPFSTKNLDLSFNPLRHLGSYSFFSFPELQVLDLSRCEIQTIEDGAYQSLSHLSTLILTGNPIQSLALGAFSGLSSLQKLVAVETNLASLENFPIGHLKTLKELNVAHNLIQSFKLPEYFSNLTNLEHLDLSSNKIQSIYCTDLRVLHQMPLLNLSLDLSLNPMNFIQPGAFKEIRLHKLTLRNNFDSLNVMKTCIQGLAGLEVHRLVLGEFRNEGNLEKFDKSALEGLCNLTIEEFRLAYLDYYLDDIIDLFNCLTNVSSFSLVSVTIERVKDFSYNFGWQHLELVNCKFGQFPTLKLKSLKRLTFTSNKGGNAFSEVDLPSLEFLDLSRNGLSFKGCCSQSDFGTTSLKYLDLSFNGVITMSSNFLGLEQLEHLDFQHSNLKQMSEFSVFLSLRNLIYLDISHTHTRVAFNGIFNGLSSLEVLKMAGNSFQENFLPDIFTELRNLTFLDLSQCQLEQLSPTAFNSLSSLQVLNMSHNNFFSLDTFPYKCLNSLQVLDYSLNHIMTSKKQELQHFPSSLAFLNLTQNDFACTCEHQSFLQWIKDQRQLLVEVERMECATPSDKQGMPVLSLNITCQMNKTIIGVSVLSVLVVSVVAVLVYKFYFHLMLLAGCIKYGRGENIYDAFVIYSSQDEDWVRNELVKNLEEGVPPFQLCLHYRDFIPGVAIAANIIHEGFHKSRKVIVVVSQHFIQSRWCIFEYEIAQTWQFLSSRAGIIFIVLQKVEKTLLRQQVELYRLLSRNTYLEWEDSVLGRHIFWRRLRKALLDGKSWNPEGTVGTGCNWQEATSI

With CC(=O)N[C@@H]1C(Oc2ccc([N+](=O)[O-])cc2)OC(CO)C(O)C1O (stereo partly drawn) [AVR-48] the IL-10 increase ([1]; AVR-48 alone, 0.1-10 μM) was ~2.5 fold, the IL-1β ([1]; LPS+AVR-48, 10 μM) was “decreased” and the IL-10 ([1]; LPS+AVR-48, 10 μM) was “decreased”. For the same compound, the IL-12p40 response ([1]; compound alone (10 μM) or with LPS, compared with only LPS) was “higher IL-12p40 response than only LPS”, the TNF-α levels ([1]; human CBMC, LPS) was “decreased” and the “IL-10 concentration in plasma” value (pre-term lamb BPD model; early time points (1-4 days), 2/d for 7 days, vs vehicle) was “significantly decreased”. The “IL-6 concentration in plasma” value (pre-term lamb BPD model; vs vehicle treated lambs after 10 days) was “significantly decreased”, the “accumulation ratio using AUC(0-t)” value ([2]; BALF, IV dosed animals) was 2.04 and the “decline of plasma concentration” value ([2]; IV dosed animals) was “declined in a bi-exponential fashion”. The “Tmax (maximum plasma concentration)” value ([2]; Sprague Dawley Crl:CD, rat, in vivo, 150 mg/kg/day) was 60 min, the Tmax ([2]; Sprague Dawley Crl:CD, rat, in vivo, 150 mg/kg/day, Tmax (maximum plasma concentration)) was 30 min and the Tmax ([2]; Sprague Dawley Crl:CD, rat, in vivo, Tmax) was 15 to 60 min. The AUC(0-t) ([2]; Sprague Dawley Crl:CD, rat, in vivo, iv, AUC(0-t)) was 4200 ng·h/mL, the Cmax ([2]; Sprague Dawley Crl:CD, rat, in vivo, maximum concentration (Cmax)) was 891 to 1070 ng/mL and the accumulation in plasma ([2]; after 3 days of twice daily administration) was “no accumulation of the drug”. For the same compound, the “nitric oxide (NO) production” value ([3]; co-treated with LPS) was “decreased”, the TNF-α production ([3]; co-treated with LPS, ELISA) was “decreased” and the IL-10 level ([3]; epithelial cells) was “No significant level”. For the same compound, the IL-β level ([3]; epithelial cells) was “No significant level”, the IFN-Υ (whole cord blood (WCB); [5]) was “not detected” and the IL-1β (whole cord blood (WCB); [5]) was “not detected”. The IL-10 increase (whole cord blood (WCB); AVR-48 alone, 10 μM) was ~1.5 fold, the IL-10 (whole cord blood (WCB); LPS+AVR-48, 10 μM) was “increased” and the TNF-α level (whole cord blood (WCB); alone or in combination with LPS) was “significantly decreased”. For the same compound, the “accumulation ratio using AUC(0-t)” value ([4]; 100 mg/kg/day) was 1.90, the “accumulation ratio using AUC(0-t)” value ([4]; 150 mg/kg/day) was 0.880 and the AUC(0-t) ([4]; Sprague Dawley Crl:CD, rat, in vivo, sc, AUC(0-t)) was 2610 ng·h/mL. For the same compound, the “AUC(0-t) dose proportionality” value ([4]; rat, in vivo, sc, 75 mg/kg) was “increased in a dose-proportional manner”, the “EC50, binding to monocytes/macrophages possibly via surface receptor TLR4” value (TLR4) was “sub nanomolar” and the DC50 (TLR4; THP-1 cells, after 48 h of treatment, ELISA, read-out: EC50, decrease of TLR4 level) was 76 nM.
